Consider one substance from patent US9248162B2, “Factor H for treatment of rheumatoid arthritis” (Baxter International Inc., priority 2013, dated 2016).

The test concerns pre-sensitized kidney transplants. Briefly: Early phase (POD3, POD5) kidney graft function, CFH with or without Adrenomedullin (Example 3). Format: in vivo, C57BL/6 (B6) mice. The conditions noted are these: result in words; POD5, vs. untreated controls (FIG. 6A). Here is the method: The effect of CFH with or without Adrenomedullin (AM) on kidney graft function, antibody response, and histology was determined following the early phase of transplantation (POD3 and POD5). […] To test whether AM provides additional benefits to renal graft function, an additional group of transplants were treated with a single dose infusion (200 μl, i.v.) of AM (˜100 ug/kg) mixed with CFH (˜1 mg/kg) immediately following the transplant surgery (POD0), in addition to the i.p. injection of CFH (day-1, 0, and every other day). CFH is a serum-binding protein for AM. It has been shown that AM influences the complement regulatory function of Factor H by enhancing the cleavage of C3b via Factor I. […] FH concentration will be 112.5 μg/ml). Transfer 220 μl aliquots to sterile tubes and freeze at −70 until ready for use. All mice were sacrificed on POD3 and 5, respectively (˜5/ea). Untreated transplants sacrificed at the same endpoints were used as controls. Graft tissues were harvested for histology and immune-histochemistry (IHC). The experimental groups were as follows: 1) C3H to B6 txs+pre-sensitization+control; 2) C3H to B6 txs+pre-sensitization+CFH (i.p.); and 3) C3H to B6 txs+pre-sensitization+CFH (i.p.)+AM/CFH infusion (at time of transplant).

Regarding Factor H, the “renal function, Cr level” value is “trend of improved renal function”.
